Source: patent US7276337B2, “Compositions and methods for visual ribonuclease detection assays” (Integrated DNA Technologies, Inc., priority 2000, dated 2007)

How the values were obtained:
[1] = Ribonuclease assay on an environmental sample (tapwater), visual detection; assay type: biochemical; settings: with Assay Buffer, Substrate 500 nM, room temperature 10 minutes
Procedure: Nuclease assays were conducted using the method of the invention. Dilutions of the test sample (tapwater) were made in nuclease-free water both with and without the addition of Assay Buffer. Samples were tested having 100%, 50%, 25%, 10%, 5%, and 1% tapwater. Assay Mixes contained test sample (diluted or undiluted tapwater) and Substrate (SEQ ID NO:30) at a concentration of 500 nM (50 pmoles ODN in 100 ul volume). Control Assay Mixes were in nuclease-free water without added tapwater. Duplicate Assays were performed with and without 1× Assay Buffer. Assay Mixes were incubated at room temperature for 10 minutes. Reactions were visually examined for fluorescence emission in the assay tubes without further manipulation. Tubes were suspended above an ultraviolet light source, visually inspected, and photographed using a digital camera. […] The test samples (with tapwater) emitted fluorescent signal. With Assay Buffer, tapwater was detectable when diluted to as little as 10 parts-per-thousand (1%). Without Assay Buffer, the assay was less sensitive and fluorescent emission was less intense. Addition of Buffer thus led to improved assay sensitivity.

Ribonuclease A = target: T1, Ribonuclease A (Bos taurus, UniProt P61823); assay: Visual detection ribonuclease assay, cleavage of Substrate ODN by RNase A; assay type: biochemical, mammalian; design: key to Sensitivity of Substrate ODN to Ribonuclease A, relative signal intensity: +++ = maximum intensity; ++ = moderate intensity; + = faint but above background; − = negative (identical to background); settings: Substrate 500 nM; for Sensitivity of Substrate ODN to Ribonuclease A, relative signal intensity: visual inspection, UV excitation, 37° C. 60 minutes
T1 sequence (P61823 27-150): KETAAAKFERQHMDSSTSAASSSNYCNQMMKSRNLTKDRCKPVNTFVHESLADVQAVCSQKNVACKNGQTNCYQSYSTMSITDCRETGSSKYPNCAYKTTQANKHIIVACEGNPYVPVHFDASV
Method in brief: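 Fluorogenic substrate oligonucleotides (500 nM for visual, 50 nM for fluorometric read) cut by serially diluted RNase A, 10 min at room temperature or 60 min at 37° C. Cleavage judged by fluorescence under UV excitation, scored +++ to − by relative intensity.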

RNase 1 = RNase 1 (Escherichia coli, UniProt P21338); assay: Fluorometric detection nuclease assay, RNase 1; assay type: biochemical, E. coli; settings: Substrate 50 nM, 37° C. 1 hour
Sequence of RNase 1 (P21338 24-268): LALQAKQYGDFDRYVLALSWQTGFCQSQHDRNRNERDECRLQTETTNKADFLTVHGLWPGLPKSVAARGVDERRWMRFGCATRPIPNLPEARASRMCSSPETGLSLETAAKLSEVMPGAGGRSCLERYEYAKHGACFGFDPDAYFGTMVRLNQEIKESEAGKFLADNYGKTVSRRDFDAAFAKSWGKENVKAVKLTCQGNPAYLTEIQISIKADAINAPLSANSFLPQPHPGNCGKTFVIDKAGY
Procedure: Nuclease assays were conducted using the method of the invention. The Substrate (SEQ ID NO:30) was mixed in 1× Assay Buffer at a concentration of 50 nM (150 pmoles oligonucleotide in 3 mls volume). Test nucleases were added to respective Assay Mixes, including 1 ul of RNase A (1 ug), 1 ul of RNase 1 (100 units), or 1 ul of RNase T1 (1000 units). […] Assays were set up directly in cuvettes as follows:
Assay Mixes were incubated at 37° C. for 1 hour. Assays were transferred to cuvettes and fluorescence emission at 520 nm was measured using a PTI fluorometer with 490 nm excitation. Substrate SEQ ID NO:30, a preferred Substrate of the invention, reacted with (i.e., detected) all three RNase enzymes, verifying that Substrate compositions of the invention are sensitive to a variety of RNase enzymes.
Assays were conducted using the method of the invention with fluorometric detection. Substrate SEQ ID NO:30 was mixed in 1× Assay Buffer at a concentration of 50 nM (50 pmoles ODN in 1.0 ml volume) in RNase-free disposable cuvettes. […] Dilutions of stock RNase A, RNase 1, and RNase T1 were made in water. […] Assays were incubated at 37° C. for 1 hour and examined for fluorescence emission at 520 nm using 490 nm excitation in a PTI fluorometer. […]

5′ Fluorescein-AauggcA-QSY-7 3′ (NAAUGGCAN; 5' fluorescein and 3' QSY-7 labels, nucleotide chemistry not given here) [SEQ ID NO:30]
Lowest tapwater concentration detectable [1]: 1%
Sensitivity of Substrate ODN to Ribonuclease A, relative signal intensity (Ribonuclease A; RNase A 10 pg/ml): ++
Sensitivity of Substrate ODN to Ribonuclease A, relative signal intensity (Ribonuclease A; RNase A 100 pg/ml): +++
Sensitivity of Substrate ODN to Ribonuclease A, relative signal intensity (Ribonuclease A; RNase A 1 ng/ml): +++
Fluorescence emission by visual inspection in the presence of RNase (Ribonuclease A; RNase A 1.0 ug/ml, room temperature 10 minutes, UV light source): visibly bright
Detection of RNase A activity by visual examination (Ribonuclease A; final dilution factors of stock 10^−2 to 10^−7, room temperature 10 minutes): clearly detectable
Fluorescence emission by visual inspection in the absence of RNase (control reaction) (Ribonuclease A; no nuclease, room temperature 10 minutes, UV light source): visually transparent (dark)
Reactivity with RNase 1 (fluorometer) (RNase 1; RNase 1 33 units/ml, emission 520 nm, 490 nm excitation): reacted
Enzyme Concentration, lowest tested reproducibly positive with signal:noise at least 2:1, RNase 1 (RNase 1; fluorometric detection, dilution factor 10^−7): 0.00001 units/ml
